# Counter-ions that a name gives are not always drawn.
# Assays:
# [1] = PK, intravenous administration; assay type: in vivo, male Sprague Dawley rats; details: male, Sprague Dawley, plasma, rat; for clearance / half-life: dose per compound as in Table 3; for AUC: dose per compound as in Table 3 (0.08-1.86 mg/kg); for Vd: dose per compound as in Table 3, read-out: Vdss
# Procedure: Pharmacokinetic parameters were determined in male Sprague Dawley rats (Charles River, UK, 250-350 g; or Vital River Laboratory Animal Technology Co Ltd, Beijing, China, 7-9 weeks old). Animals were individually housed during the study and maintained under a 12 h light/dark cycle.
# For intravenous administration, compounds were formulated as a solution in water or DMSO:PBS [10:90] in 2 mL/kg dosing volume and administered via tail or jugular vein. For oral administration, compounds were formulated as a solution in 0.5% w/v methyl cellulose in water in 5 mL/kg dosing volume and administered orally.
# Serial blood samples (about 120-300 μL) were taken from each animal at each of 8 time-points post dose (0.083, 0.25, 0.5, 1, 2, 4, 8 and 24 h) or at each of 12 time-points post dose (0.03, 0.1, 0.17, 0.25, 0.5, 1, 2, 4, 6, 8, 12 and 24 h) or pre-dose and at each of 9 time-points post dose (0.25, 0.5, 1, 2, 4, 6, 8, 12 and 24 h). Samples were held on ice for no longer than 30 minutes before centrifugation (10,000 rpm (8,385 g) for 3 minutes; or 5,696 rpm (3,000 g) for 15 minutes) for plasma generation. Plasma was frozen on dry ice prior to bioanalysis. PK parameters were generated from LC-MS/MS data using Dotmatics or Phoenix WinNonlin 6.3 software.
# NLRP3 [2] = molecular target: T1, NLRP3 (Homo sapiens, UniProt Q96P20); experiment: THP-1 cells pyroptosis assay (LPS + nigericin, resazurin read-out); assay type: cell-based; set-up: Seed THP-1 cells (25,000 cells/well) containing 1.0 μg/ml LPS; host or cells: THP-1 cells
# T1 sequence (Q96P20 whole entry): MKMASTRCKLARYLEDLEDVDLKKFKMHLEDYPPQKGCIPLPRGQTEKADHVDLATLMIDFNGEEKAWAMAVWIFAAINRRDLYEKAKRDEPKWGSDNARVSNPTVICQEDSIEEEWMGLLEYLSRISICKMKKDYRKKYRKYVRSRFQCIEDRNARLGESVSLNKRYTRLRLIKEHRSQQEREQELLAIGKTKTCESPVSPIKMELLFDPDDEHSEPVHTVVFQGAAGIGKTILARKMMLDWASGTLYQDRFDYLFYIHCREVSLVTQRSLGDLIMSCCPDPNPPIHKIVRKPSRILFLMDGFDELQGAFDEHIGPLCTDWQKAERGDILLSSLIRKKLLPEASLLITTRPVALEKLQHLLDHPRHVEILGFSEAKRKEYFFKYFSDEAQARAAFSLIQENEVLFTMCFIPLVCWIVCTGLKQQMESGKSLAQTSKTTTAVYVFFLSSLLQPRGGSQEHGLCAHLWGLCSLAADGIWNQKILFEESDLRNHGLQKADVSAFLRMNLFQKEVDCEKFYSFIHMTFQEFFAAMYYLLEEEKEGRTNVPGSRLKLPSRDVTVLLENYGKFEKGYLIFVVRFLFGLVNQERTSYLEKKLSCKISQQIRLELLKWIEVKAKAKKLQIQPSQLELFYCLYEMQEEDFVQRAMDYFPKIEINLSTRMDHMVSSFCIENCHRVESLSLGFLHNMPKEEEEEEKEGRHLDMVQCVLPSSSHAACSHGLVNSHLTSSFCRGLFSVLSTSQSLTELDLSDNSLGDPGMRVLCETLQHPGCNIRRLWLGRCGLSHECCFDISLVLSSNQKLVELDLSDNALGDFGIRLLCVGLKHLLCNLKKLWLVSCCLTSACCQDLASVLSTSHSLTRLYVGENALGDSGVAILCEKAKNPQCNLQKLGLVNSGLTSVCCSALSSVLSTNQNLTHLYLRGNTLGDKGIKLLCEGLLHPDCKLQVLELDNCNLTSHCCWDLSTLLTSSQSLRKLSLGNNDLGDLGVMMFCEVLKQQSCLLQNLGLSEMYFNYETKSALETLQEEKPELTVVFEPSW
# Summary of the method: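 THP-1 cells (25,000/well) primed with 1 μg/ml LPS in serum-free RPMI, treated 3 h with compound (8-point half-log series, 10 μM top, 0.1% DMSO), then 5 μM nigericin for 1 h at 37 °C. Viability read by 100 μM resazurin fluorescence after 1-2 h; IC50 from 4-parameter fit.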
# NLRP3 [3] = molecular target: T1, NLRP3; experiment: Human whole blood IL-1β release assay (LPS + nigericin, AlphaLisa); assay type: cell-based; set-up: Plate out 80 μl of whole blood containing 1 μg/ml of LPS; from tissue; host or cells: human whole blood from healthy donors
# Procedure: For systemic delivery, the ability to inhibit NLRP3 when the compounds are present within the bloodstream is of great importance. For this reason, the NLRP3 inhibitory activity of a number of compounds in human whole blood was investigated in accordance with the following protocol.
# Human whole blood in Li-heparin tubes was obtained from healthy donors from a volunteer donor panel. • 1. Plate out 80 μl of whole blood containing 1 μg/ml of LPS in 96-well, clear bottom cell culture plate (Corning #3585) • 2. Add 10 μl compound (8 points half-log dilution with 10 μM top dose) or vehicle (DMSO 0.1% FAC) to the appropriate wells • 3. Incubate for 3 hrs at 37° C., 5% CO2 • 4. Add 10 μl nigericin (Sigma #N7143) (10 μM FAC) to all wells • 5. Incubate for 1 hr at 37° C., 5% CO2 • 6. At the end of the incubation period, spin plates at 300×g for 5 mins to pellet cells and remove 20 μl of supernatant and add to 96-well v-bottom plates for IL-1β analysis (note: these plates containing the supernatants can be stored at −80° C. to be analysed at a later date) • 7. IL-1β was measured according to the manufacturer protocol (Perkin Elmer-AlphaLisa IL-1 Kit AL220F-5000) • 8. IC50 data is fitted to a non-linear regression equation (log inhibitor vs response-variable slope 4-parameters)
# [4] = THP-1 cells, 1 μg/ml LPS, 5 μM nigericin, NLRP3 inhibitory activity, read-out: THP IC50
# [5] = human whole blood, 1 μg/ml LPS, 10 μM nigericin, IL-1β release, read-out: HWB IC50
Compound,clearance [1] [mL/min/kg],half-life [1] [h],AUC [1] [ng·h/mL],Vd [1] [L/kg],IC50 (NLRP3 [2]; [4]) [nM],IC50 (NLRP3 [3]; [5]) [nM],IC50 (NLRP3 [2]) [nM],IC50 (NLRP3 [3]) [nM]
"CC(C)N1CCC(N(C)S(=O)(=O)NC(=O)Nc2c3c(cc4c2CCC4)CCC3)C1 (centres unmarked) [Example 36, 3-(N-(1-isopropylpyrrolidin-3-yl)-N-methylsulfamoyl)-1-(1,2,3,5,6,7-hexahydro-s-indacen-4-yl)urea, potassium salt]",2.8,1.1,5910,0.23,< 500,< 1000,–,–
COc1cc(-c2ccc3c(c2NC(=O)NS(=O)(=O)N2CC4CCN(C)C4C2)CCC3)ccn1 (centres unmarked) [Example 106],6,5.61,5150,0.84,–,–,–,–
"CN1CC[C@@H](N(C)S(=O)(=O)NC(=O)Nc2c3c(cc4c2CCC4)CCC3)C1 [Example 66, 3-((R)—N-Methyl-N-(1-methylpyrrolidin-3-yl)sulfamoyl)-1-(1,2,3,5,6,7-hexahydro-s-indacen-4-yl)urea, potassium salt]",3.7,3.44,6760,0.43,< 500,< 500,–,–
"CN1CCCCC1CNS(=O)(=O)NC(=O)Nc1c2c(cc3c1CCC3)CCC2 (centres unmarked) [Example 20, 3-(N-((1-Methylpiperidin-2-yl)methyl)sulfamoyl)-1-(1,2,3,5,6,7-hexahydro-s-indacen-4-yl)urea, potassium salt]",7.1,1.2,2360,0.4,< 500,< 500,–,–
"CCN1C2CCC1CN(S(=O)(=O)NC(=O)Nc1c3c(cc4c1CCC4)CCC3)C2 [Example 61, 8-Ethyl-N-((1,2,3,5,6,7-hexahydro-s-indacen-4-yl)carbamoyl)-3,8-diazabicyclo[3.2.1]octane-3-sulfonamide, potassium salt]",–,–,–,–,< 500,< 500,–,–
"CN1CCC[C@H]1CN(C)S(=O)(=O)NC(=O)Nc1c2c(cc3c1CCC3)CCC2 [Example 115, 3-((S)—N-Methyl-N-((-1-methylpyrrolidin-2-yl)methyl)sulfamoyl)-1-(1,2,3,5,6,7-hexahydro-s-indacen-4-yl)urea, sodium salt]",–,–,–,–,< 500,< 1000,–,–
"CN1CCCC(NS(=O)(=O)NC(=O)Nc2c3c(cc4c2CCC4)CCC3)C1 (centres unmarked) [Example 52, 3-(N-(1-Methylpiperidin-3-yl)sulfamoyl)-1-(1,2,3,5,6,7-hexahydro-s-indacen-4-yl)urea, potassium salt]",–,–,–,–,< 500,< 500,–,–
"CN1CC2(CCN2S(=O)(=O)NC(=O)Nc2c3c(cc4c2CCC4)CCC3)C1 [Example 91, N-((1,2,3,5,6,7-Hexahydro-s-indacen-4-yl)carbamoyl)-6-methyl-1,6-diazaspiro[3.3]heptane-1-sulfonamide, potassium salt]",–,–,–,–,< 1000,< 5000,–,–
"CCN1CC2CN(S(=O)(=O)NC(=O)Nc3c4c(cc5c3CCC5)CCC4)CC21 (centres unmarked) [Example 85, 6-Ethyl-N-((1,2,3,5,6,7-hexahydro-s-indacen-4-yl)carbamoyl)-3,6-diazabicyclo[3.2.0]heptane-3-sulfonamide]",–,–,–,–,< 500,< 500,–,–
"CN(C)CCN(CCCc1ccccc1)S(=O)(=O)NC(=O)Nc1c2c(cc3c1CCC3)CCC2 [Example 58, 3-(N-(2-(Dimethylamino)ethyl)-N-(3-phenylpropyl)sulfamoyl)-1-(1,2,3,5,6,7-hexahydro-s-indacen-4-yl)urea, potassium salt]",–,–,–,–,< 500,< 5000,–,–
"O=C(Nc1c2c(cc3c1CCC3)CCC2)NS(=O)(=O)N1CC(N2CCC2)C1 [Example 46, N-((1,2,3,5,6,7-Hexahydro-s-indacen-4-yl)carbamoyl)-[1,3′-biazetidine]-1′-sulfonamide, potassium salt]",–,–,–,–,< 1000,< 5000,–,–
"O=C(Nc1c2c(cc3c1CCC3)CCC2)NS(=O)(=O)N1CC2CCC(C1)N2C1CC1 [Example 75, 8-Cyclopropyl-N-((1,2,3,5,6,7-hexahydro-s-indacen-4-yl)carbamoyl)-3,8-diazabicyclo[3.2.1]octane-3-sulfonamide, potassium salt]",–,–,–,–,–,–,< 500,< 5000

# More lines, main results first:
clearance [1] [mL/min/kg],half-life [1] [h],AUC [1] [ng·h/mL],Vd [1] [L/kg],IC50 (NLRP3 [2]; [4]) [nM],IC50 (NLRP3 [3]; [5]) [nM],Compound,IC50 (NLRP3 [2]) [nM],IC50 (NLRP3 [3]) [nM]
7.3,4,2290,0.61,< 1000,< 500,"CN(C)CCNS(=O)(=O)NC(=O)Nc1c2c(cc3c1CCC3)CCC2 [Example 8, 3-(N-(2-(Dimethylamino)ethyl)sulfamoyl)-1-(1,2,3,5,6,7-hexahydro-s-indacen-4-yl)urea]",–,–
5.7,1.14,5150,0.45,< 500,< 500,"CN1CCC2CN(S(=O)(=O)NC(=O)Nc3c4c(cc5c3CCC5)CCC4)CC21 (centres unmarked) [Example 96, N-((1,2,3,5,6,7-Hexahydro-s-indacen-4-yl)carbamoyl)-1-methylhexahydropyrrolo[3,4-b]pyrrole-5(1H)-sulfonamide, potassium salt]",–,–
2.9,2.7,5660,0.59,< 500,< 500,"CN1CCC(N(C)S(=O)(=O)NC(=O)Nc2c3c(cc4c2CCC4)CCC3)C1 (centres unmarked) [Example 11, 3-(N-Methyl-N-(1-methylpyrrolidin-3-yl)sulfamoyl)-1-(1,2,3,5,6,7-hexahydro-s-indacen-4-yl)urea, potassium salt]",–,–
–,–,–,–,< 500,< 1000,"CN1CC2CN(S(=O)(=O)NC(=O)Nc3c4c(cc5c3CCC5)CCC4)C2C1 (centres unmarked) [Example 94, N-((1,2,3,5,6,7-Hexahydro-s-indacen-4-yl)carbamoyl)-3-methyl-3,6-diazabicyclo[3.2.0]heptane-6-sulfonamide, potassium salt]",–,–
2.3,2.7,7270,0.35,< 500,< 500,"CN(C)CCN(C)S(=O)(=O)NC(=O)Nc1c2c(cc3c1CCC3)CCC2 [Example 6, potassium salt]",–,–
–,–,–,–,< 500,< 5000,"CC(C)n1cc(NS(=O)(=O)NC(=O)Nc2c3c(cc4c2CCC4)CCC3)cn1 [Example 65, 3-(N-(1-Isopropyl-1H-pyrazol-4-yl)sulfamoyl)-1-(1,2,3,5,6,7-hexahydro-s-indacen-4-yl)urea, potassium salt]",–,–
–,–,–,–,< 1000,< 500,"CCN(CC)CCNS(=O)(=O)NC(=O)Nc1c2c(cc3c1CCC3)CCC2 [Example 40, 3-(N-(2-(Diethylamino)ethyl)sulfamoyl))-1-(1,2,3,5,6,7-hexahydro-s-indacen-4-yl)urea, potassium salt]",–,–
–,–,–,–,< 5000,< 5000,"CN1CCC2CCN(S(=O)(=O)NC(=O)Nc3c4c(cc5c3CCC5)CCC4)CC21 (centres unmarked) [Example 98, N-((1,2,3,5,6,7-Hexahydro-s-indacen-4-yl)carbamoyl)-1-methyloctahydro-6H-pyrrolo[2,3-c]pyridine-6-sulfonamide]",–,–
–,–,–,–,< 500,< 1000,"CC(C)N1CC2CCC(C1)N2S(=O)(=O)NC(=O)Nc1c2c(cc3c1CCC3)CCC2 [Example 38, N-((1,2,3,5,6,7-Hexahydro-s-indacen-4-yl)carbamoyl)-3-isopropyl-3,8-diazabicyclo[3.2.1]octane-8-sulfonamide, potassium salt]",–,–
–,–,–,–,< 500,< 500,"CN1CC[C@@H](NS(=O)(=O)NC(=O)Nc2c3c(cc4c2CCC4)CCC3)C1 [Example 89, 3-((R)—N-(1-Methylpyrrolidin-3-yl)sulfamoyl)-1-(1,2,3,5,6,7-hexahydro-s-indacen-4-yl)urea, potassium salt]",–,–

# From US12187702B2, “Sulfonamideurea compounds” (Inflazome Limited, priority 2018, dated 2025)
